Source: paper PMC3963422 (Journal of Visualized Experiments : JoVE, 2013)

How the values were obtained:
[1] = cantilever array surface stress detection, D-Lac coated cantilevers, buffer; type: binding
[2] = cantilever bending in serum, D-Ala coated cantilevers; type: binding; conditions: 7 μM Van in serum (90% fetal calf serum plus 10% sodium phosphate buffer pH 7.4), 25 °C
[3] = cantilever bending in serum, D-Lac coated cantilevers; type: binding; conditions: 7 μM Van in serum (90% fetal calf serum plus 10% sodium phosphate buffer pH 7.4), 25 °C
[4] = D-Lac vs D-Ala peptide terminus; cited from earlier work
[5] = test system: vancomycin-resistant Enterococcus (VRE); conditions: vancomycin-resistant Enterococcus (D-Lac); cited from earlier work

SMILES: CN[C@H](CC(C)C)C(=O)N[C@H]1C(=O)N[C@@H](CC(N)=O)C(=O)N[C@H]2C(=O)N[C@H]3C(=O)N[C@H](C(=O)N[C@H](C(=O)O)c4cc(O)cc(O)c4-c4cc3ccc4O)[C@H](O)c3ccc(c(Cl)c3)Oc3cc2cc(c3O[C@@H]2O[C@H](CO)[C@@H](O)[C@H](O)[C@H]2O[C@H]2C[C@](C)(N)[C@H](O)[C@H](C)O2)Oc2ccc(cc2Cl)[C@H]1O [Van, vancomycin]
- bending signal at high vancomycin concentration [1]: measureable bending signals
- differential bending signal [2]: 105±4 nm
- bending signal [3]: no bending was observed
- reduction in Van-D-Lac binding affinity [4]: three orders of magnitude
- therapeutic effectiveness against Enterococcal infections [5]: therapeutically ineffective
